Here are results for two compounds from US7897759B2, “Metabolically stable puromycin analogs” (MUSC Foundation for Research Development, priority 2007, dated 2011).

Molecules are shown by their SMILES.

Series [1] concerns breast cancer (MCF-7) cells. In words: SRB cytotoxicity assay in MCF-7 cells. The settings on record: 72 h, FIG. 1. In kind it is cell-based. On the procedure: Dump media and wash wells with PBS. Add approx 100 μL 10% TCA to wells using squirt bottle. Incubate at 4° C. for 30 minutes to 1 hour. Dump TCA and wash plate 5 times with water (use beaker for washes). Add 100 ul SRB dye to wells. Incubate at room temperature for 30 minutes. Dump dye and wash plate 4 times with 1% acetic acid (use beaker for washes). Add 200 μL Tris Base to wells. Incubate at room temperature with agitation for at least 1 hour. Use Softmax pro plate reader with SRB560.
MCF-7 cells were plated at a density of 50,000 cells/well (99 μL/well) in a 96-well microtiter plate and allowed to adhere at 37° C. for 4 h. The drug (dissolved in 1 μL of DMSO/medium solution) was added and cells were incubated at 37° C. for 72 h. 100 μL of a 10% solution of trichloroacetic acid was then added and the cells were incubated for 1 h at 4° C. The supernatant was removed and the plate was washed 5 times with water. 100 μL of SRB dye (Promega) was added and the plate was incubated at rt for 30 min. The dye was removed and the plate was washed 4 times with 1% acetic acid solution. 200 μL of Tris Base was added, and the plate was incubated at rt with agitation for 1 h. Absorbance was read at 560 nm.

A further series concerns leukemia (HL-60) cells. In words: MTS cytotoxicity assay in HL-60 cells. Particulars: 72 h, FIG. 2. In kind it is cell-based. On the procedure:
HL-60 cells were plated at a density of 4,000 cells/well (99 μL/well) in a 96-well microtiter plate. The drug (dissolved in 1 μL of DMSO/medium solution) was added and cells were incubated at 37° C. for 72 h. 20 μL of a solution of MTS/PMS (Promega, 5% PMS/MTS) was then added, the cells were incubated for 1 h, after which absorbance was read at 490 nm.

Series [2] has as its system JC murine mammary adenocarcinoma cells growing in Balb/c mice. In words: Antitumor effects in murine mammary tumor model. It counts as in vivo. The settings on record: 50 mg/kg intraperitoneal on days 7 and 12, FIG. 3. How it is done: Model: JC murine mammary adenocarcinoma cells growing in Balb/c mice. Treatment is started when tumor are small, typically ˜20 mm3.
(§1) Treatment: Drug was administered by intraperitoneal injection on days 7, and 12 at 50 mg/kg dissolved in 50% DMSO:50% PBS.

Series [3] can be described thus: Body weight / toxicity in murine mammary tumor model. It counts as in vivo. On the procedure: Model: JC murine mammary adenocarcinoma cells growing in Balb/c mice.
as §1

The test system of series [4] is Bacillus subtilis ATCC 6633. The settings on record: B. subtilis; Gilbert et al., Tetrahedron 2005; cited from earlier work.
Series [5] deals with Bacillus cereus ATCC 10987. Particulars: B. cereus; Gilbert et al., Tetrahedron 2005; cited from earlier work.

In the case of `CN(C)c1ncnc2c1ncn2[C@@H]1O[C@H](CO)[C@H](CC(=O)[C@@H](N)Cc2ccccc2)C1O` (stereo partly drawn) [GG-48, 9-{3-[1-(3-amino-2-oxo-4-phenyl)butyl]-3-deoxy-D-ribofuranosyl}-6-dimethylaminopurine], the “cytotoxic activity (killing curve) versus puromycin” value (in series [1]; with leukemia (HL-60) cells) was “killing curves overlapping those of puromycin” each time. The “effect on tumor growth” value in series [2] is “suppressed tumor growth”. Moreover, the toxicity result in series [3] (50 mg/kg intraperitoneal on days 7 and 12) is recorded as “no obvious toxicity”. Also, in series [3] (50 mg/kg intraperitoneal, during the treatment period (or after), FIG. 4), the “effect on body weight” value was “no loss of body weight”.
Take `COc1ccc(C[C@H](N)C(=O)N[C@H]2[C@@H](O)[C@H](n3cnc4c(N(C)C)ncnc43)O[C@@H]2CO)cc1` [puromycin]: the “antimicrobial activity (MIC)” value in series [4] and in series [5] was 3.13 mg/L throughout.
